Biological target: T1, ΔF508-CFTR (Homo sapiens, UniProt P13569, DEL508-508)
T1 construct: expressed in transfected cells
Experiment: Membrane potential optical (FRET/VIPR) assay, identification of potentiator compounds
Format: cell-based
Conditions: Table 3, assay not given; for % Activity: relative efficacy
In short: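 Double-addition potentiator screen: compound delivered in gluconate-substituted Cl^--free medium, membrane potential followed via CC2-DMPE/DiSBAC2(3) FRET on VIPR. Cells were ΔF508-CFTR-expressing NIH3T3 mouse fibroblasts, held 2 h at 37° C. then 24 h at 27° C. before assay.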

T1 sequence (P13569 with tags, fused parts or gaps DEL508-508): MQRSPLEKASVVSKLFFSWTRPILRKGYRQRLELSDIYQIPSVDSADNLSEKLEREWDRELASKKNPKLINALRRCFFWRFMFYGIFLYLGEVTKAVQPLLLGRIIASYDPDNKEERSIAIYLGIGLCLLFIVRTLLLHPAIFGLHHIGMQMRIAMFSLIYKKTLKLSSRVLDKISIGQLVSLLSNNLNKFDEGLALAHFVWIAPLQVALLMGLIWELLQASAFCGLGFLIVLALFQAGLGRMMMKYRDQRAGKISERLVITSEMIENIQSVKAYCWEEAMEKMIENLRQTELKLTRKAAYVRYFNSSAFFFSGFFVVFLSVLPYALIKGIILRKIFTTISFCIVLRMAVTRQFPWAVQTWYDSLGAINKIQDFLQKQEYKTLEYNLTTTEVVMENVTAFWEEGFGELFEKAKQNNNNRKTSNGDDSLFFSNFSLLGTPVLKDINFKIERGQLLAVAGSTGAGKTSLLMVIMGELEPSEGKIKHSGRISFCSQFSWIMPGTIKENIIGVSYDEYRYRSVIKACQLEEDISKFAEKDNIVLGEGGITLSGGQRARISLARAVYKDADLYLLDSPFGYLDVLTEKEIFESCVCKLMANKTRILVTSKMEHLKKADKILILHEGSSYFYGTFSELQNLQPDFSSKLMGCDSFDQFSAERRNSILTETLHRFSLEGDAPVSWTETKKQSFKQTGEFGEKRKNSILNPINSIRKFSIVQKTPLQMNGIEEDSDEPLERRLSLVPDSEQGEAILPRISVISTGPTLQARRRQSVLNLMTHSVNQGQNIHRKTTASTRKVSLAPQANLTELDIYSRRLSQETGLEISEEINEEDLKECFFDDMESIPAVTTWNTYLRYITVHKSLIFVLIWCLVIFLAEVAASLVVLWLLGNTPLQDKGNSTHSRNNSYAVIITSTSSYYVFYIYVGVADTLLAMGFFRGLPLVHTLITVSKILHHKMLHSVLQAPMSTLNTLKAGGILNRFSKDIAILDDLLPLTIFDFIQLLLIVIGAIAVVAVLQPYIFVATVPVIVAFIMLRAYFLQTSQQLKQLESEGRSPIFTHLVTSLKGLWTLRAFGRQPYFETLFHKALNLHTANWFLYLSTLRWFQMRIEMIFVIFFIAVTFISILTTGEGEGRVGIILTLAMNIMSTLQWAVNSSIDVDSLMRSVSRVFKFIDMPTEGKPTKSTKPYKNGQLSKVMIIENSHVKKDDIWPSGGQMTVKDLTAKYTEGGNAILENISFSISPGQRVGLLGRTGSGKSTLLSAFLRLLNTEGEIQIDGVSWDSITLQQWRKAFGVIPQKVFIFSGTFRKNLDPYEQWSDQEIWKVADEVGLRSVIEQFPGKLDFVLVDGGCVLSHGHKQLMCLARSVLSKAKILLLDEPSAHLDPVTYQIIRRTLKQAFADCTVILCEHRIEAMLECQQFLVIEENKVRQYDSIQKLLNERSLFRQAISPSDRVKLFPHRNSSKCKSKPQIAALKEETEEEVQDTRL

Structure (SMILES) | EC50 [µM] | % Activity
CCOC(=O)C(C)(C)c1ccc(NC(=O)c2c[nH]c3ccccc3c2=O)cc1 [Compound 420, 2-methyl-2-[4-[(4-oxo-1H-quinolin-3-yl)carbonylamino]phenyl]-propanoic acid ethyl ester] | < 10 | ++ (between 25% to 100%)
COc1cc(NC(=O)c2c[nH]c3ccccc3c2=O)c(C(F)(F)F)cc1C(C)(C)C [Compound 421, N-[5-methoxy-4-tert-butyl-2-(trifluoromethyl)phenyl]-4-oxo-1H-quinoline-3-carboxamide] | < 10 | ++ (between 25% to 100%)
CCOCCc1c[nH]c2cc(NC(=O)c3c[nH]c4ccccc4c3=O)ccc12 [Compound 423, N-[3-(2-ethoxyethyl)-1H-indol-6-yl]-4-oxo-1H-quinoline-3-carboxamide] | < 10 | ++ (between 25% to 100%)
O=C(Nc1ccccc1-c1ccc(Cl)cc1)c1c[nH]c2ccccc2c1=O [Compound 424, N-[2-(4-chlorophenyl)phenyl]-4-oxo-1H-quinoline-3-carboxamide] | < 10 | ++ (between 25% to 100%)
CC(C)c1ccc(NC(=O)c2c[nH]c3ccccc3c2=O)cc1 [Compound 425, N-(4-isopropylphenyl)-4-oxo-1H-quinoline-3-carboxamide] | – | ++ (between 25% to 100%)
CC(C)(C)c1cc(Cl)c(O)cc1NC(=O)c1c[nH]c2ccccc2c1=O [Compound 426, N-(4-chloro-5-hydroxy-2-tert-butyl-phenyl)-4-oxo-1H-quinoline-3-carboxamide] | < 10 | ++ (between 25% to 100%)
CC(C)(C)OC(=O)N1CCc2c(cccc2NC(=O)c2c[nH]c3ccccc3c2=O)C1 [Compound 427, 5-[(4-oxo-1H-quinolin-3-yl)carbonylamino]-1,2,3,4-tetrahydroisoquinoline-2-carboxylic acid tert-butyl ester] | < 10 | ++ (between 25% to 100%)
CC(C)(C)c1ccc(NC(=O)c2c[nH]c3ccccc3c2=O)cc1O [Compound 428, N-(3-hydroxy-4-tert-butyl-phenyl)-4-oxo-1H-quinoline-3-carboxamide] | < 10 | ++ (between 25% to 100%)
Nc1cc(NC(=O)c2c[nH]c3ccccc3c2=O)cc(C(F)(F)F)c1 [Compound 429, N-[3-amino-5-(trifluoromethyl)phenyl]-4-oxo-1H-quinoline-3-carboxamide] | < 10 | ++ (between 25% to 100%)
Cc1cccc(C(C)C)c1NC(=O)c1c[nH]c2ccccc2c1=O [Compound 430, N-(2-isopropyl-6-methyl-phenyl)-4-oxo-1H-quinoline-3-carboxamide] | < 10 | ++ (between 25% to 100%)
Nc1cccc(NC(=O)c2c[nH]c3ccccc3c2=O)c1 [Compound 431, N-(3-aminophenyl)-4-oxo-1H-quinoline-3-carboxamide] | 10 to 25 | ++ (between 25% to 100%)
CC(C)c1ccc(-c2ccccc2NC(=O)c2c[nH]c3ccccc3c2=O)cc1 [Compound 432, N-[2-(4-isopropylphenyl)phenyl]-4-oxo-1H-quinoline-3-carboxamide] | < 10 | ++ (between 25% to 100%)
CC(C)(C)c1cc(C(C)(C)C)c(NC(=O)c2c[nH]c3ccccc3c2=O)cc1O [Compound 433, N-(5-hydroxy-2,4-ditert-butyl-phenyl)-4-oxo-1H-quinoline-3-carboxamide] | < 10 | –
Cc1ccc(C)c(NC(=O)c2c[nH]c3ccccc3c2=O)c1 [Compound 434, N-(2,5-dimethylphenyl)-4-oxo-1H-quinoline-3-carboxamide] | < 10 | ++ (between 25% to 100%)
O=C(Nc1cccnc1Oc1ccccc1F)c1c[nH]c2ccccc2c1=O [Compound 435, N-[2-(2-fluorophenoxy)-3-pyridyl]-4-oxo-1H-quinoline-3-carboxamide] | < 10 | ++ (between 25% to 100%)
COc1ccc(-c2ccccc2NC(=O)c2c[nH]c3ccccc3c2=O)cc1OC [Compound 436, N-[2-(3,4-dimethoxyphenyl)phenyl]-4-oxo-1H-quinoline-3-carboxamide] | < 10 | ++ (between 25% to 100%)
O=C(Nc1ccc2c(c1)OCO2)c1c[nH]c2ccccc2c1=O [Compound 437, N-benzo[1,3]dioxol-5-yl-4-oxo-1H-quinoline-3-carboxamide] | 25 to 60 | + (<25%)
CC(C)(C)c1cc(C(C)(C)C)c(C(F)F)cc1NC(=O)c1c[nH]c2ccccc2c1=O [Compound 438, N-[5-(difluoromethyl)-2,4-ditert-butyl-phenyl]-4-oxo-1H-quinoline-3-carboxamide] | < 10 | ++ (between 25% to 100%)
COc1ccc(NC(=O)c2c[nH]c3ccccc3c2=O)cc1 [Compound 439, N-(4-methoxyphenyl)-4-oxo-1H-quinoline-3-carboxamide] | < 10 | ++ (between 25% to 100%)

Structure (SMILES) | EC50 [µM] | % Activity
O=C(Nc1ccc2c(c1)OC(F)(F)C(F)(F)O2)c1c[nH]c2ccccc2c1=O [Compound 440, N-(2,2,3,3-tetrafluoro-2,3-dihydrobenzo[b][1,4]dioxin-6-yl)-1,4-dihydro-4-oxoquinoline-3-carboxamide] | < 10 | ++ (between 25% to 100%)
CS(=O)(=O)Nc1cc(NC(=O)c2c[nH]c3ccccc3c2=O)cc(C(F)(F)F)c1 [Compound 441, N-[3-methylsulfonylamino-5-(trifluoromethyl)phenyl]-4-oxo-1H-quinoline-3-carboxamide] | – | ++ (between 25% to 100%)
O=C(Nc1cccc(S(=O)(=O)N2CCCCC2)c1)c1c[nH]c2ccccc2c1=O [Compound 442, 4-oxo-N-[3-(1-piperidylsulfonyl)phenyl]-1H-quinoline-3-carboxamide] | 25 to 60 | + (<25%)
O=C(Nc1ccc2nccnc2c1)c1c[nH]c2ccccc2c1=O [Compound 443, 4-oxo-N-quinoxalin-6-yl-1H-quinoline-3-carboxamide] | 25 to 60 | + (<25%)
COC(=O)c1cc(NC(=O)c2c[nH]c3ccccc3c2=O)ccc1C(C)(C)C [Compound 444, 5-[(4-oxo-1H-quinolin-3-yl)carbonylamino]-2-tert-butyl-benzoic acid methyl ester] | < 10 | ++ (between 25% to 100%)
C=C(C)c1ccccc1NC(=O)c1c[nH]c2ccccc2c1=O [Compound 445, N-(2-isopropenylphenyl)-4-oxo-1H-quinoline-3-carboxamide] | < 10 | +++ (>100%)
O=C(Nc1ccc2c(c1)S(=O)(=O)C=C2)c1c[nH]c2ccccc2c1=O [Compound 446, N-(1,1-dioxobenzothiophen-6-yl)-4-oxo-1H-quinoline-3-carboxamide] | 25 to 60 | + (<25%)
N#Cc1cccc(NC(=O)c2c[nH]c3ccccc3c2=O)c1 [Compound 447, N-(3-cyanophenyl)-4-oxo-1H-quinoline-3-carboxamide] | 10 to 25 | ++ (between 25% to 100%)
CC(C)(C)c1ccc(NC(=O)c2c[nH]c3ccccc3c2=O)cc1 [Compound 448, 4-oxo-N-(4-tert-butylphenyl)-1H-quinoline-3-carboxamide] | < 10 | ++ (between 25% to 100%)
Cc1cccc(NC(=O)c2c[nH]c3ccccc3c2=O)c1 [Compound 449, N-(m-tolyl)-4-oxo-1H-quinoline-3-carboxamide] | < 10 | ++ (between 25% to 100%)
CC(O)c1ccc(NC(=O)c2c[nH]c3ccccc3c2=O)cc1 (stereo not shown) [Compound 450, N-[4-(1-hydroxyethyl)phenyl]-4-oxo-1H-quinoline-3-carboxamide] | 10 to 25 | ++ (between 25% to 100%)
CCc1cc(C#N)ccc1NC(=O)c1c[nH]c2ccccc2c1=O [Compound 451, N-(4-cyano-2-ethyl-phenyl)-4-oxo-1H-quinoline-3-carboxamide] | < 10 | ++ (between 25% to 100%)
C=Cc1ccc(NC(=O)c2c[nH]c3ccccc3c2=O)cc1 [Compound 452, 4-oxo-N-(4-vinylphenyl)-1H-quinoline-3-carboxamide] | < 10 | ++ (between 25% to 100%)
Nc1cc(NC(=O)c2c[nH]c3ccccc3c2=O)ccc1Cl [Compound 453, N-(3-amino-4-chloro-phenyl)-4-oxo-1H-quinoline-3-carboxamide] | < 10 | ++ (between 25% to 100%)
Cc1ccc(-c2ccccc2)cc1NC(=O)c1c[nH]c2ccccc2c1=O [Compound 454, N-(2-methyl-5-phenyl-phenyl)-4-oxo-1H-quinoline-3-carboxamide] | 25 to 60 | + (<25%)
O=C(Nc1ccc(C23CC4CC(CC(C4)C2)C3)cc1)c1c[nH]c2ccccc2c1=O [Compound 455, N-[4-(1-adamantyl)phenyl]-4-oxo-1H-quinoline-3-carboxamide] | < 10 | ++ (between 25% to 100%)
O=C(Nc1cccc(SC(F)(F)F)c1)c1c[nH]c2ccccc2c1=O [Compound 456, 4-oxo-N-[3-(trifluoromethylsulfanyl)phenyl]-1H-quinoline-3-carboxamide] | < 10 | ++ (between 25% to 100%)
O=C(Nc1ccc(N2CCOCC2)cc1)c1c[nH]c2ccccc2c1=O [Compound 457, N-(4-morpholinophenyl)-4-oxo-1H-quinoline-3-carboxamide] | 25 to 60 | + (<25%)
CC(C)(C)c1ccc(NC(=O)c2c[nH]c3ccccc3c2=O)cc1OCCO [Compound 458, N-[3-(2-hydroxyethoxy)-4-tert-butyl-phenyl]-4-oxo-1H-quinoline-3-carboxamide] | < 10 | ++ (between 25% to 100%)

From patent publication US8614327B2 (Vertex Pharmaceuticals Incorporated, priority 2004, dated 2013)
